# Laboratory results published in US20250144067A1, “PERSONALIZED STARVATION THERAPY FOR CANCER” (Faeth Therapeutics, Inc., priority 2021, published 2025).
# Structures can show the parent of a compound that is named as a salt.
# Columns and labels:
# [1] = test system: NCI-H292 lung cancer cells; test: FDA drug screening, complete media vs cholesterol-free media with simvastatin (TABLE 2); type: cell-based, human; details: for Cholesterol-free media + simvastatin (0.04 μM) / Complete Media: NCI-H292 cells
# [2] = test system: NCI-H292 lung cancer cells; test: FDA drug screening, complete media vs cholesterol-free media without statin (TABLE 1); type: cell-based, human
# [3] = cholesterol-free media with simvastatin 0.04 μM, cell growth value in FDA drug screen
# [4] = complete media, cell growth value in FDA drug screen
# [5] = complete media minus cholesterol-free media + simvastatin, >0 enhanced anti-cancer activity, about 0 neutral, <0 antagonist
# [6] = Complete minus Cholesterol-free, >0 enhanced anti-cancer activity, about 0 neutral, <0 antagonist
# [7] = NCI-H292 cells, cholesterol-free media without statin, FDA drug library screen
# [8] = NCI-H292 cells, complete media, FDA drug library screen
# [9] = cholesterol-free media with simvastatin 0.04 μM, FDA drug library screen (TABLE 2)
# [10] = complete media, FDA drug library screen (TABLE 2)
# [11] = complete media minus cholesterol-free media + simvastatin (0.04 μM), >0 enhanced anti-cancer activity, about 0 neutral, <0 antagonist
# [12] = Complete minus Cholesterol-free, greater than 0 enhanced anti-cancer activity, about 0 neutral, below 0 antagonist
# [13] = NCI-H292 cells, FDA drug library screen, cholesterol-free media without statin
# [14] = NCI-H292 cells, FDA drug library screen, complete media
# [15] = FDA drug library screen, cholesterol-free media with simvastatin 0.04 μM
# [16] = FDA drug library screen, complete media
# [17] = NCI-H292 cells, cholesterol-free media without statin
# [18] = complete vs cholesterol-free media, greater than 0 enhanced anti-cancer activity, about 0 neutral, below 0 antagonists
# [19] = complete vs cholesterol-free media, >0 enhanced anti-cancer activity, about 0 neutral, <0 antagonist
# [20] = FDA library drug in cholesterol-free media with simvastatin 0.04 μM
# [21] = FDA library drug in complete media
# [22] = complete media vs cholesterol-free media + simvastatin (0.04 μM), >0 enhanced anti-cancer activity, about 0 neutral, <0 antagonist
# [23] = Complete minus Cholesterol-free, greater than 0 enhanced anti-cancer activity, about 0 neutral, below 0 antagonists
# [24] = NCI-H292 cells in cholesterol-free media without statin
# [25] = NCI-H292 cells in complete media
# [26] = Complete minus Cholesterol-free, […]
# [27] = drug in cholesterol-free media with simvastatin 0.04 μM
# [28] = complete media minus cholesterol-free media + simvastatin, […]
molecule,measurement,setting,value
COc1c(OCCCN2CCOCC2)ccc2c1N=C(NC(=O)c1cnc(N)nc1)N1CCN=C21 [Copanlisib (dihydrochloride)],Cholesterol-free media + simvastatin (0.04 μM),[1]; [3],0.2902
same,Complete Media,[1]; [4],0.3694
same,Difference,[1]; [5],0.08
same,Difference,[2]; [6],0.02
same,Cholesterol-free,[2]; [7],0.07316
same,Complete,[2]; [8],0.09563
NS(=O)(=O)c1cc(Cl)c(Cl)c(S(N)(=O)=O)c1 [Dichlorphenamide],Cholesterol-free media + simvastatin (0.04 μM),[1]; [9],1.117
same,Complete Media,[1]; [10],1.073
same,Difference,[1]; [11],−0.04
same,Difference,[2]; [12],−0.08
same,Cholesterol-free,[2]; [13],1.046
same,Complete,[2]; [14],0.9714
CC(C(=O)O)c1ccc2c(c1)[nH]c1ccc(Cl)cc12 (centres unmarked) [Carprofen],Cholesterol-free media + simvastatin (0.04 μM),[1]; [3],0.8634
same,Complete Media,[1]; [4],0.98
same,Difference,[1]; [5],0.12
same,Difference,[2]; [12],−0.18
same,Cholesterol-free,[2]; [13],1.071
same,Complete,[2]; [14],0.886
CCCN(CCC)CCc1cccc2c1CC(=O)N2 [Ropinirole (hydrochloride)],Cholesterol-free media + simvastatin (0.04 μM),[1]; [15],0.879
same,Complete Media,[1]; [16],1.185
same,Difference,[1]; [5],0.31
same,Cholesterol-free,[2]; [17],1.101
same,Complete,"[2]; NCI-H292 cells, complete media",0.7874
same,Difference,[2]; [18],−0.31
CC(C)[C@H]1CC[C@H](C(=O)N[C@H](Cc2ccccc2)C(=O)O)CC1 [Nateglinide],Cholesterol-free media + simvastatin (0.04 μM),[1]; [15],1.052
same,Complete Media,[1]; [16],1.823
same,Difference,[1]; [5],0.77
same,Cholesterol-free,[2]; [7],1.149
same,Complete,[2]; [8],1.887
same,Difference,[2]; [19],0.74
O=C(CCBr)N1CCN(C(=O)CCBr)CC1 [Pipobroman],Cholesterol-free media + simvastatin (0.04 μM),[1]; [20],1.384
same,Complete Media,[1]; [21],1.051
same,Difference,[1]; [22],−0.33
same,Difference,[2]; [6],−0.30
same,Cholesterol-free,[2]; [17],1.38
same,Complete,"[2]; NCI-H292 cells, complete media",1.078
CO/N=C(\C(=O)N[C@@H]1C(=O)N2C(C(=O)O)=C(CSc3nnnn3C)CS[C@H]12)c1csc(N)n1 [Cefmenoxime (hydrochloride)],Cholesterol-free media + simvastatin (0.04 μM),[1]; [15],0.8027
same,Complete Media,[1]; [16],0.7093
same,Difference,[1]; [22],−0.09
same,Difference,[2]; [6],−0.30
same,Cholesterol-free,[2]; [17],1.225
same,Complete,"[2]; NCI-H292 cells, complete media",0.93
CC1=NN(c2ccc(C)c(C)c2)C(=O)/C1=N\Nc1cccc(-c2cccc(C(=O)O)c2)c1O [Eltrombopag (Olamine)],Cholesterol-free media + simvastatin (0.04 μM),[1]; [9],1.098
same,Complete Media,[1]; [10],1.058
same,Difference,[1]; [11],−0.04
same,Difference,[2]; [23],−0.96
same,Cholesterol-free,[2]; [24],1.745
same,Complete,[2]; [25],0.7856
Gluconate (Calcium),Cholesterol-free media + simvastatin (0.04 μM),[1]; [20],1.134
same,Complete Media,[1]; [21],0.8004
same,Difference,"[1]; complete media vs cholesterol-free media + simvastatin (0.04 μM), […]",−0.33
same,Difference,[2]; [26],−0.74
same,Complete,[2]; [25],0.8786
CN1C(=O)CC(c2ccccc2)C1=O (centres unmarked) [Phensuximide],Cholesterol-free media + simvastatin (0.04 μM),[1]; [27],1.556
same,Complete Media,[1]; drug in complete media,1.333
same,Difference,[1]; [22],−0.22
same,Difference,[2]; [6],−0.30
same,Cholesterol-free,[2]; [17],1.128
same,Complete,"[2]; NCI-H292 cells, complete media",0.8334
CC1(C)S[C@@H]2[C@H](NC(=O)[C@H](N)c3ccccc3)C(=O)N2[C@H]1C(=O)O [Ampicillin],Cholesterol-free media + simvastatin (0.04 μM),[1]; [20],1.07
same,Complete Media,[1]; [21],0.7564
same,Difference,[1]; [22],−0.31
same,Cholesterol-free,[2]; [7],0.9318
same,Complete,[2]; [8],1.363
same,Difference,[2]; [19],0.43
COc1cc(NS(C)(=O)=O)ccc1Nc1c2ccccc2nc2ccccc12 [Amsacrine (hydrochloride)],Cholesterol-free media + simvastatin (0.04 μM),[1]; [20],0.8278
same,Complete Media,[1]; [21],0.3873
same,Difference,[1]; [22],−0.44
same,Difference,[2]; [6],0.00
same,Cholesterol-free,[2]; [7],0.2374
same,Complete,[2]; [8],0.2416
COc1ccc2cc([C@H](C)C(=O)O)ccc2c1 [Naproxen (sodium)],Cholesterol-free media + simvastatin (0.04 μM),[1]; [15],1.198
same,Complete Media,[1]; [16],1.058
same,Difference,[1]; [22],−0.14
same,Cholesterol-free,[2]; [17],1.162
same,Complete,"[2]; NCI-H292 cells, complete media",0.8469
same,Difference,[2]; [18],−0.32
COc1cc(/C=C/C(=O)O)ccc1O.[Na] [Ferulic acid (sodium)],Cholesterol-free media + simvastatin (0.04 μM),[1]; [9],0.806
same,Complete Media,[1]; [10],0.766
same,Difference,[1]; [11],−0.04
same,Cholesterol-free,[2]; [7],1.137
same,Complete,[2]; [8],1.309
same,Difference,[2]; [19],0.17
COc1cc(O)c(C(=O)Nc2nc(C(=O)NCCN(C(C)C)C(C)C)cs2)cc1OC,Cholesterol-free media + simvastatin (0.04 μM),[1]; [27],1.16
same,Complete Media,[1]; drug in complete media,0.9105
same,Difference,[1]; [22],−0.25
same,Difference,[2]; [23],−0.47
same,Cholesterol-free,[2]; [24],1.419
same,Complete,[2]; [25],0.9453
Cc1nc(Nc2ncc(C(=O)Nc3c(C)cccc3Cl)s2)cc(N2CCN(CCO)CC2)n1 [Dasatinib],Cholesterol-free media + simvastatin (0.04 μM),[1]; [15],0.3286
same,Complete Media,[1]; [16],0.514
same,Difference,[1]; [5],0.19
same,Difference,[2]; [12],−0.15
same,Cholesterol-free,[2]; [13],0.4806
same,Complete,[2]; [14],0.3333
C=C[C@@H]1C[C@]1(NC(=O)[C@@H]1C[C@@H]2CN1C(=O)[C@H](C(C)(C)C)NC(=O)O[C@@H]1C[C@H]1CCCCCc1nc3ccc(OC)cc3nc1O2)C(=O)[N-]S(=O)(=O)C1CC1.[K+] [Grazoprevir potassium salt],Cholesterol-free media + simvastatin (0.04 μM),[1]; [15],1.46
same,Complete Media,[1]; [16],1.827
same,Difference,[1]; [28],0.37
same,Difference,[2]; [26],−0.06
same,Cholesterol-free,[2]; [7],1.089
same,Complete,[2]; [8],1.03
CCCCC(=O)N(Cc1ccc(-c2ccccc2-c2nnn[nH]2)cc1)[C@H](C(=O)O)C(C)C [Valsartan],Cholesterol-free media + simvastatin (0.04 μM),[1]; [27],1.056
same,Complete Media,[1]; drug in complete media,0.8568
same,Difference,[1]; [22],−0.20
same,Difference,[2]; [12],−0.09
same,Cholesterol-free,[2]; [13],0.8984
same,Complete,[2]; [14],0.8065
COc1cc(NS(=O)(=O)c2ccc(N)cc2)ncn1 [Sulfamonomethoxine],Cholesterol-free media + simvastatin (0.04 μM),[1]; [20],1.013
same,Complete Media,[1]; [21],0.7465
same,Difference,[1]; [22],−0.27
same,Difference,[2]; [23],−0.48
same,Cholesterol-free,[2]; [24],1.378
same,Complete,[2]; [25],0.8971
CN1CCOC(c2ccccc2)c2ccccc2C1 (centres unmarked) [Nefopam (hydrochloride)],Cholesterol-free media + simvastatin (0.04 μM),[1]; [9],1.077
same,Complete Media,[1]; [10],1.041
same,Difference,[1]; [11],−0.04
same,Cholesterol-free,[2]; [17],1.379
same,Complete,"[2]; NCI-H292 cells, complete media",0.9673
same,Difference,[2]; [18],−0.41
CCCCCCCCCCCC(=O)OCN1C(=O)CCc2ccc(OCCCCN3CCN(c4cccc(Cl)c4Cl)CC3)cc21 [Aripiprazole Lauroxil],Cholesterol-free media + simvastatin (0.04 μM),[1]; [9],0.9724
same,Complete Media,[1]; [10],0.9697
same,Difference,"[1]; complete media minus cholesterol-free media + simvastatin (0.04 μM), […]",0.00
same,Difference,[2]; [26],−0.06
same,Cholesterol-free,[2]; [7],0.9297
same,Complete,[2]; [8],0.8705
Oc1ncnc2[nH]ncc12 [Allopurinol],Cholesterol-free media + simvastatin (0.04 μM),[1]; [3],0.8896
same,Complete Media,[1]; [4],0.9734
same,Difference,[1]; [5],0.08
same,Difference,[2]; [6],−0.29
same,Cholesterol-free,[2]; [17],1.198
same,Complete,"[2]; NCI-H292 cells, complete media",0.9095
CC1(C)NC(=O)N(c2ccc([N+](=O)[O-])c(C(F)(F)F)c2)C1=O [Nilutamide],Cholesterol-free media + simvastatin (0.04 μM),[1]; [20],1.474
same,Complete Media,[1]; [21],1.003
same,Difference,[1]; [22],−0.47
same,Difference,[2]; [23],−0.63
same,Cholesterol-free,[2]; [24],1.565
same,Complete,[2]; [25],0.9342
CN(C)C(=O)Oc1cccc([N+](C)(C)C)c1.COS(=O)(=O)[O-] [Neostigmine (methyl sulfate)],Cholesterol-free media + simvastatin (0.04 μM),[1]; [15],0.8206
same,Complete Media,[1]; [16],1.308
same,Difference,[1]; [28],0.49
same,Cholesterol-free,[2]; [17],1.718
same,Complete,"[2]; NCI-H292 cells, complete media",1.281
same,Difference,"[2]; complete vs cholesterol-free media, […]",−0.44
CC(C)(C)NC[C@H](O)COc1cccc2c1CCCC2=O [Levobunolol (hydrochloride)],Cholesterol-free media + simvastatin (0.04 μM),[1]; [9],0.9864
same,Complete Media,[1]; [10],0.921
same,Difference,[1]; [11],−0.07
same,Cholesterol-free,[2]; [7],0.4904
same,Complete,[2]; [8],1.134
same,Difference,[2]; [19],0.64
Cc1nccn1CC1CCc2c(c3ccccc3n2C)C1=O (centres unmarked) [Ondansetron],Cholesterol-free media + simvastatin (0.04 μM),[1]; [9],1.019
same,Complete Media,[1]; [10],0.948
same,Difference,[1]; [11],−0.07
same,Difference,[2]; [6],−0.05
same,Cholesterol-free,[2]; [7],1.168
same,Complete,[2]; [8],1.123
Cl.N[C@H]1C(O)O[C@H](CO)[C@@H](O)[C@@H]1O (some centres unmarked) [Glucosamine (hydrochloride)],Cholesterol-free media + simvastatin (0.04 μM),[1]; [15],0.9525
same,Complete Media,[1]; [16],1.178
same,Difference,[1]; [5],0.23
same,Difference,[2]; [12],−0.17
same,Cholesterol-free,[2]; [13],1.116
same,Complete,[2]; [14],0.9464
Cc1nc(NC(=O)N2CCC[C@H]2C(N)=O)sc1-c1ccnc(C(C)(C)C(F)(F)F)c1 [Alpelisib],Cholesterol-free media + simvastatin (0.04 μM),[1]; [9],0.5514
same,Complete Media,[1]; [10],0.5502
same,Difference,[1]; [11],0.00
same,Difference,[2]; [6],0.04
same,Cholesterol-free,[2]; [7],0.497
same,Complete,[2]; [8],0.5335
